Values after ≈ are worked out from the molar mass of the structure shown.
Columns and labels:
Staphylococcus aureus [1] = assay: Minimum inhibitory concentration against Staphylococcus aureus SG 511 was determined by agar dilution method using Mueller-Hinton; assay type: functional
Escherichia coli [2] = assay: Minimum inhibitory concentration against Escherichia coli 055 was determined by agar dilution method using Mueller-Hinton; assay type: functional
Staphylococcus aureus [3] = assay: Minimum inhibitory concentration against Staphylococcus aureus 503 was determined by agar dilution method using Mueller-Hinton; assay type: functional
Staphylococcus aureus [4] = assay: Minimum inhibitory concentration against Staphylococcus aureus 285 was determined by agar dilution method using Mueller-Hinton; assay type: functional
Pseudomonas aeruginosa [5] = assay: Minimum inhibitory concentration against Pseudomonas aeruginosa 9027 was determined by agar dilution method using Mueller-Hinton; assay type: functional
Salmonella typhimurium = assay: Minimum inhibitory concentration against Salmonella Typhimurium was determined by agar dilution method using Mueller-Hinton; assay type: functional, Salmonella enterica subsp. enterica serovar Typhimurium; details: Salmonella enterica
Klebsiella aerogenes = assay: Minimum inhibitory concentration against Klebsiella aerogenes 1522E was determined by agar dilution method using Mueller-Hinton; assay type: functional
Escherichia coli [6] = assay: Minimum inhibitory concentration against Escherichia coli 1507E was determined by agar dilution method using Mueller-Hinton; assay type: functional
Pseudomonas aeruginosa [7] = assay: Minimum inhibitory concentration against Pseudomonas aeruginosa 1771M was determined by agar dilution method using Mueller-Hinton; assay type: functional
[8] = target: Dipeptidase 1 (Sus scrofa) (UniProt P22412); assay: Relative half life of hydrolysis to meropenem by partially purified porcine renal DHP-I was determined
Chain of Dipeptidase 1 (Sus scrofa) (P22412 whole entry, looked up): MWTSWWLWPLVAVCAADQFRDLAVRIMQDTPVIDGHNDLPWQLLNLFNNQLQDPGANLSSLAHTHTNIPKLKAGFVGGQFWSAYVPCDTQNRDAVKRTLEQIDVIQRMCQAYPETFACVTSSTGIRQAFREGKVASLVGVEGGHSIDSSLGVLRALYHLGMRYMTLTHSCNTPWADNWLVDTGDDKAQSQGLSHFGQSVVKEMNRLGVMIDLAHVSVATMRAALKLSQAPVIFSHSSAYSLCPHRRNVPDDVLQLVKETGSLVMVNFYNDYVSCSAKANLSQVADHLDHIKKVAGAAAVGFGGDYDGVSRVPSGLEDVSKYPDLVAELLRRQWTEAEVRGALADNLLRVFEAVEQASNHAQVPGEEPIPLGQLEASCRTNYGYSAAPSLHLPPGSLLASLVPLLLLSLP

Enterobacter cloacae = assay: Minimum inhibitory concentration against Enterobacter cloacae 1321E was determined by agar dilution method using Mueller-Hinton; assay type: functional
Pseudomonas aeruginosa [9] = assay: Minimum inhibitory concentration against Pseudomonas aeruginosa 1592E was determined by agar dilution method using Mueller-Hinton; assay type: functional
Streptococcus pyogenes = assay: Minimum inhibitory concentration against Streptococcus pyogenes 308A was determined by agar dilution method using Mueller-Hinton; assay type: functional
[10] = target: Dipeptidase 1 (Sus scrofa) (UniProt P22412); assay: Stability to porcine renal DHP-I was determined

Structure (SMILES) | MIC (Staphylococcus aureus [1]) [µg/mL] | MIC (Escherichia coli [2]) [µg/mL] | MIC (Staphylococcus aureus [3]) [µg/mL] | MIC (Staphylococcus aureus [4]) [µg/mL] | MIC (Pseudomonas aeruginosa [5]) [µg/mL] | MIC (Salmonella typhimurium) [µg/mL] | MIC (Klebsiella aerogenes) [µg/mL] | MIC (Escherichia coli [6]) [µg/mL] | MIC (Pseudomonas aeruginosa [7]) [µg/mL] | Relativity [8] | MIC (Enterobacter cloacae) [µg/mL] | MIC (Pseudomonas aeruginosa [9]) [µg/mL] | MIC (Streptococcus pyogenes) [µg/mL] | Activity [10]
C[C@@H](O)[C@H]1C(=O)N2C(C(=O)O)=C(SCCNC=N)C[C@H]12 [IMIPENEM ANHYDROUS] | 0.025 (≈ 0.0835 µM) | 0.098 (≈ 0.327 µM) | 0.013 (≈ 0.0434 µM) | 0.025 (≈ 0.0835 µM) | 0.781 (≈ 2.61 µM) | 0.781 (≈ 2.61 µM) | 0.391 (≈ 1.31 µM) | 0.195 (≈ 0.651 µM) | 0.195 (≈ 0.651 µM) | 0.19 | 0.195 (≈ 0.651 µM) | 1.56 (≈ 5.22 µM) | 0.007 (≈ 0.0234 µM) | 
C[C@@H](O)[C@H]1C(=O)N2C(C(=O)O)=C(S[C@@H]3CN[C@H](/C=C/c4ccon4)C3)[C@H](C)[C@H]12 | 0.195 (≈ 0.481 µM) | 0.098 (≈ 0.242 µM) | 0.098 (≈ 0.242 µM) | 0.195 (≈ 0.481 µM) | 3.12 (≈ 7.71 µM) | 0.098 (≈ 0.242 µM) | 0.098 (≈ 0.242 µM) | 0.098 (≈ 0.242 µM) | 0.781 (≈ 1.93 µM) | 2.33 | 0.049 (≈ 0.121 µM) | 3.12 (≈ 7.71 µM) | 0.025 (≈ 0.0617 µM) | 
C[C@@H](O)[C@H]1C(=O)N2C(C(=O)O)=C(S[C@@H]3CN[C@H](/C=C/c4ccno4)C3)[C@H](C)[C@H]12 | 0.025 (≈ 0.0617 µM) | 0.025 (≈ 0.0617 µM) | 0.013 (≈ 0.0321 µM) | 0.025 (≈ 0.0617 µM) | 0.195 (≈ 0.481 µM) | 0.049 (≈ 0.121 µM) | 0.049 (≈ 0.121 µM) | 0.025 (≈ 0.0617 µM) | 0.195 (≈ 0.481 µM) | 1.95 | 0.025 (≈ 0.0617 µM) | 0.195 (≈ 0.481 µM) | 0.004 (≈ 0.00986 µM) | 
C[C@@H](O)[C@H]1C(=O)N2C(C(=O)O)=C(S[C@@H]3CN[C@H](C(=O)N(C)C)C3)[C@H](C)[C@H]12 [MEROPENEM] | 0.195 (≈ 0.509 µM) | 0.025 (≈ 0.0652 µM) | 0.098 (≈ 0.256 µM) | 0.195 (≈ 0.509 µM) | 0.195 (≈ 0.509 µM) | 0.049 (≈ 0.128 µM) | 0.049 (≈ 0.128 µM) | 0.025 (≈ 0.0652 µM) | 0.049 (≈ 0.128 µM) |  | 0.025 (≈ 0.0652 µM) | 0.195 (≈ 0.509 µM) | 0.013 (≈ 0.0339 µM) | 1
C[C@@H](O)[C@H]1C(=O)N2C(C(=O)O)=C(S[C@@H]3CN[C@H](/C=C\c4cnoc4)C3)[C@H](C)[C@H]12 | 0.013 (≈ 0.0321 µM) | 0.391 (≈ 0.964 µM) | 0.013 (≈ 0.0321 µM) | 0.025 (≈ 0.0617 µM) | 25 (≈ 61.7 µM) | 0.391 (≈ 0.964 µM) | 3.12 (≈ 7.71 µM) | 1.56 (≈ 3.85 µM) | 3.12 (≈ 7.71 µM) | 1.84 | 1.56 (≈ 3.85 µM) | 25 (≈ 61.7 µM) | < 0.002 | 

Continued, in another order:

MIC (Staphylococcus aureus [1]) [µg/mL] | MIC (Escherichia coli [2]) [µg/mL] | MIC (Staphylococcus aureus [3]) [µg/mL] | MIC (Staphylococcus aureus [4]) [µg/mL] | MIC (Pseudomonas aeruginosa [5]) [µg/mL] | MIC (Salmonella typhimurium) [µg/mL] | MIC (Klebsiella aerogenes) [µg/mL] | MIC (Escherichia coli [6]) [µg/mL] | MIC (Pseudomonas aeruginosa [7]) [µg/mL] | Relativity [8] | MIC (Enterobacter cloacae) [µg/mL] | MIC (Pseudomonas aeruginosa [9]) [µg/mL] | MIC (Streptococcus pyogenes) [µg/mL] | Structure (SMILES) | Activity [10]
0.049 (≈ 0.113 µM) | 0.049 (≈ 0.113 µM) | 0.049 (≈ 0.113 µM) | 0.049 (≈ 0.113 µM) | 3.12 (≈ 7.18 µM) | 0.098 (≈ 0.225 µM) | 0.098 (≈ 0.225 µM) | 0.049 (≈ 0.113 µM) | 1.56 (≈ 3.59 µM) | 1.59 | 0.049 (≈ 0.113 µM) | 3.12 (≈ 7.18 µM) | 0.013 (≈ 0.0299 µM) | C[C@@H](O)[C@H]1C(=O)N2C(C(=O)O)=C(S[C@@H]3CN[C@H](/C=C\c4cc(CO)no4)C3)[C@H](C)[C@H]12 | 
0.049 (≈ 0.113 µM) | 0.098 (≈ 0.225 µM) | 0.049 (≈ 0.113 µM) | 0.025 (≈ 0.0574 µM) | 12.5 (≈ 28.7 µM) | 0.195 (≈ 0.448 µM) | 0.391 (≈ 0.898 µM) | 0.391 (≈ 0.898 µM) | 6.25 (≈ 14.4 µM) | 2.14 | 0.195 (≈ 0.448 µM) | 12.5 (≈ 28.7 µM) | 0.007 (≈ 0.0161 µM) | COc1cc(/C=C/[C@@H]2C[C@H](SC3=C(C(=O)O)N4C(=O)[C@H]([C@@H](C)O)[C@H]4[C@H]3C)CN2)on1 | 
0.049 (≈ 0.106 µM) | 0.025 (≈ 0.0539 µM) | 0.025 (≈ 0.0539 µM) | 0.049 (≈ 0.106 µM) | 0.098 (≈ 0.211 µM) | 0.025 (≈ 0.0539 µM) | 0.049 (≈ 0.106 µM) | 0.025 (≈ 0.0539 µM) | 0.098 (≈ 0.211 µM) | 2.68 | 0.025 (≈ 0.0539 µM) | 0.195 (≈ 0.421 µM) | 0.007 (≈ 0.0151 µM) | COC(=O)c1cc(/C=C/[C@@H]2C[C@H](SC3=C(C(=O)O)N4C(=O)[C@H]([C@@H](C)O)[C@H]4[C@H]3C)CN2)on1 | 
0.025 (≈ 0.0574 µM) | 0.025 (≈ 0.0574 µM) | 0.025 (≈ 0.0574 µM) | 0.025 (≈ 0.0574 µM) | 0.195 (≈ 0.448 µM) | 0.049 (≈ 0.113 µM) | 0.049 (≈ 0.113 µM) | 0.025 (≈ 0.0574 µM) | 0.098 (≈ 0.225 µM) | 2.01 | 0.025 (≈ 0.0574 µM) | 0.195 (≈ 0.448 µM) | 0.007 (≈ 0.0161 µM) | C[C@@H](O)[C@H]1C(=O)N2C(C(=O)O)=C(S[C@@H]3CN[C@H](/C=C/c4cc(CO)no4)C3)[C@H](C)[C@H]12 | 
0.049 (≈ 0.106 µM) | 0.025 (≈ 0.0539 µM) | 0.025 (≈ 0.0539 µM) | 0.049 (≈ 0.106 µM) | 0.098 (≈ 0.211 µM) | 0.025 (≈ 0.0539 µM) | 0.049 (≈ 0.106 µM) | 0.025 (≈ 0.0539 µM) | 0.195 (≈ 0.421 µM) | 1.35 | 0.025 (≈ 0.0539 µM) | 0.195 (≈ 0.421 µM) | 0.007 (≈ 0.0151 µM) | COC(=O)c1cc(/C=C\[C@@H]2C[C@H](SC3=C(C(=O)O)N4C(=O)[C@H]([C@@H](C)O)[C@H]4[C@H]3C)CN2)on1 | 
0.013 (≈ 0.0296 µM) | 0.025 (≈ 0.0568 µM) | 0.013 (≈ 0.0296 µM) | 0.025 (≈ 0.0568 µM) | 0.781 (≈ 1.78 µM) | 0.025 (≈ 0.0568 µM) | 0.025 (≈ 0.0568 µM) | 0.025 (≈ 0.0568 µM) | 0.195 (≈ 0.443 µM) | 1.33 | 0.013 (≈ 0.0296 µM) | 0.781 (≈ 1.78 µM) | 0.004 (≈ 0.00909 µM) | C[C@@H](O)[C@H]1C(=O)N2C(C(=O)O)=C(S[C@@H]3CN[C@H](/C=C/c4cc(Cl)no4)C3)[C@H](C)[C@H]12 | 

From ChEMBL document CHEMBL1133072, “Synthesis and biological activity of 1beta-methyl-2-[5'-isoxazoloethenylpyrrolidin-3'-ylthio]carbapenems” (2000)
